# Test results as given in patent US12617768B2, “Radiolabeled cannabinoid receptor 2 ligand” (HOFFMANN-LA ROCHE INC., priority 2018, dated 2026).
# pKi: −log10 of the molar value.
# Molecular target: T1, human CB1 receptors (Homo sapiens, UniProt P21554)
# T1 construct: expressed in transfected cells; host or cells: stably transfected cells (cell line for CB1 not explicitly stated)
# Assay: Radioligand competition binding of [^3H]CP55940, human CB1
# Conditions: competition with [^3H]CP55940; cells recombinantly expressing the receptor
# Description: Stably transfected cells or spleen tissue were homogenized in 15 mmol L-1 Hepes, 0.3 mmol L-1 EDTA, 1 mmol L-1 EGTA, 2 mmol L-1 MgCl2, complete EDTA-free protease inhibitor (Roche Applied Science, Rotkreuz, Switzerland), pH 7.4 using a glass potter and centrifugation at 47,800 g at 4° C. for 30 min. The pellet was then rehomogenized twice in the same buffer and centrifuged (47,800 g, 4° C., 30 min). The final pellet was then resuspended in 75 mmol L-1 Tris, 0.3 mmol L-1 EDTA, 1 mmol L-1 EGTA, 12.5 mmol L-1 MgCl2, 250 mmol L-1 sucrose, pH 7.4 at a protein concentration of 1 to 3 mg mL-1, aliquoted, frozen on dry ice and stored at −80° C.
# For competition binding, membrane preparations were incubated either with 0.3 nM of [^3H]-CP55940 in the presence or absence of increasing concentrations of unlabeled (R^1═R^2═CH2CH3, R^3═CH2CH2CH2F) compound of formula (I) or with 1.5 nM compound of formula (I) ((R^1═R^2═CHTCH2T, R^3═CH2CH2CH2F)) and increasing amounts of membranes (2.5-80 μg) in the presence or absence of CP55940 (10 μM) for 60 min at 30° C. in a final volume of 0.2 mL of 50 mmol L-1 Tris-HCl, 5 mmol L-1 MgCl2, 2.5 mmol L-1 EGTA, 0.1% fatty acid-free BSA and 1% DMSO, pH 7.4, buffer, gently shaking. […] IC50 values and Hill slopes were determined by a four parameter logistic model using ActivityBase
# T1 sequence (P21554 whole entry): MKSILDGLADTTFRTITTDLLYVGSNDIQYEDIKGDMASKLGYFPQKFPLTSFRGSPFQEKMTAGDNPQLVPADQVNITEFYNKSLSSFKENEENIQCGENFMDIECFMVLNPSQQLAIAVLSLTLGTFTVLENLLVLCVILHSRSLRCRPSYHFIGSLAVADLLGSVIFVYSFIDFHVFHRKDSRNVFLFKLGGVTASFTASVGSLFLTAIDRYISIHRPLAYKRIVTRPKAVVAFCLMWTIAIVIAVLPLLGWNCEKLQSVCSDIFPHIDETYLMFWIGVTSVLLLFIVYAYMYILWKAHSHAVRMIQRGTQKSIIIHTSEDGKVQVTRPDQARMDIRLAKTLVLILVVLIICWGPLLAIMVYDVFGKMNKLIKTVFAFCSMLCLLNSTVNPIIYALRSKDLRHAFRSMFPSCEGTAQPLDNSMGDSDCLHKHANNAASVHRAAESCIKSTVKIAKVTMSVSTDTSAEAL
structure (smiles),measurement,value
CCC(CC)(NC(=O)c1ccc(N2CC(OC)C2)c(OC[C@H]2C[C@@H]2CO)n1)C(=O)OCCCF [unlabeled compound of formula (I)],pKi,< 5.00
